The nature of data set [1]: Terminal elimination half-life of SPP100 following single oral dose of SPP100 150 mg capsule studied in healthy human. It is filed as ADME, organism-based. The settings on record: plasma.
The nature of data set [2]: Excretion (0-168h) of aliskiren in urine following oral administration of [14C] aliskiren hemifumarate at 3 mg.Kg-1 level in marmoset. The settings on record: in vivo. Format: ADME, organism-based, Callithrix jacchus.
A short description of data set [3]: % of radioactivity recovered as aliskiren in faeces following oral administration of [14C] aliskiren hemifumarate at 100 mg.Kg-1 level in rat. Format: ADME, organism-based, Albino HAN:WIST, Feces. As to conditions: in vivo.
Data set [4] is described as follows: Excretion of radioactivity (0-96h) in urine following single oral dose of 100 mg.Kg-1 [14C] aliskiren hemifumarate in rat. It is filed as ADME, organism-based, Albino HAN:WIST. As to conditions: in vivo.
A short description of data set [5]: Concentration of radioactivity in the liver following repeated oral administration of [14C] aliskiren hemifumarate at 100 mg.Kg-1 level studied at 2h after 3rd dose in rat. Format: ADME, organism-based, Albino HAN:WIST. As to conditions: in vivo.
A short description of data set [6]: Concentration of radioactivity in the brown fat following repeated oral administration of [14C] aliskiren hemifumarate at 100 mg.Kg-1 level studied at 24h after 7th dose in rat. As to conditions: in vivo. It is filed as ADME, organism-based, Albino HAN:WIST, Brown adipose tissue.
A short description of data set [7]: Cmax of [14C] aliskiren hemifumarate following single intravenous dose of [14C] aliskiren hemifumarate at 10 mg.Kg-1 level in mouse. As to conditions: in vivo. Format: ADME, organism-based, TgRasH2, Plasma.
The nature of data set [8]: Plasma concentration of [14C] aliskiren hemifumarate in first 4h following single intravenous […] dose of [14C] aliskiren hemifumarate at 10 mg.Kg-1 level in mouse. It is filed as ADME, organism-based, TgRasH2. The settings on record: in vivo.
Data set [9] can be described thus: Excretion (0-168h) of radioactivity in faeces following oral administration of [14C] aliskiren hemifumarate at 3 mg.Kg-1 level in marmoset. Format: ADME, organism-based, Callithrix jacchus, Feces. The settings on record: in vivo.
Data set [10] in a line: Mean excretion of radioactivity (0-72h) in urine and faeces following single intravenous dose of 10 mg.Kg-1 [14C] aliskiren hemifumarate in mouse. Format: ADME, organism-based, TgRasH2, Urine/Feces. The settings on record: in vivo.
Data set [11] is described as follows: Mean excretion of radioactivity (48-72h) in urine and faeces following single intravenous dose of 10 mg.Kg-1 [14C] aliskiren hemifumarate in mouse. It is filed as ADME, organism-based, TgRasH2, Urine/Feces. The settings on record: in vivo.
In the next data set the target is Cytochrome P450 3A5 (Homo sapiens, UniProt P20815). As to the kind of experiment: Metabolic clearance (ul.min.nmol-1 CYP) of aliskiren hemifumarate for CYP3A5 was determined in human liver microsome incubated with [14C]SPP100 hemifumarate. It is filed as ADME. As to conditions: microsomes.
Data set [12] can be described thus: % of radioactivity (24h) recovered in faeces following single intravenous administration of 10 mg.Kg-1 [14C] aliskiren hemifumarate in male rat. It is filed as ADME, organism-based, HAN:WIST(SPF), Feces. The settings on record: in vivo.
The nature of data set [13]: % of radioactivity (24h) recovered in urine following single intravenous administration of 10 mg.Kg-1 [14C] aliskiren hemifumarate in male rat. Format: ADME, organism-based, HAN:WIST(SPF). The settings on record: in vivo.
The nature of data set [14]: Excretion (0-168h) of radioactivity in urine following intravenous administration of [14C] aliskiren hemifumarate at 1 mg.Kg-1 level in marmoset. It is filed as ADME, organism-based, Callithrix jacchus. The settings on record: in vivo.
Data set [15] in a line: Cmax/dose (0-96h) of total radioactivity following oral administration of [14C] aliskiren hemifumarate at 100 mg.Kg-1 level in rat. The settings on record: in vivo. It is filed as ADME, organism-based, Albino HAN:WIST, Plasma.
Data set [16] can be described thus: Excretion of radioactivity (0-96h) in faeces following single intravenous dose of 10 mg.Kg-1 [14C] aliskiren hemifumarate in rat. Format: ADME, organism-based, Albino HAN:WIST, Feces. The settings on record: in vivo.
Data set [17] in a line: Excretion (0-168h) of 14C-radioactivity in urine following single oral dose of 300 mg [14C]SPP100 studied in healthy men. Format: ADME, organism-based. As to conditions: human, in vivo, at 300 mg.
Data set [18] can be described thus: Excretion of radioactivity (24-48h) in faeces following single intravenous dose of 10 mg.Kg-1 [14C] aliskiren hemifumarate in mouse. It is filed as ADME, organism-based, TgRasH2, Feces. As to conditions: in vivo.
Data set [19] is described as follows: Total excretion (0-72h) of radioactivity in urine, faeces and cage wash following single intravenous dose of 10 mg.Kg-1 [14C] aliskiren hemifumarate in mouse. Format: ADME, organism-based, TgRasH2, Urine/Feces. As to conditions: in vivo.
The target of data set [20] is Voltage-gated inwardly rectifying potassium channel KCNH2 (Homo sapiens, UniProt Q12809). Description: Inhibitory concentration of aliskiren hemifumarate against cloned hERG channel expressed in human embryonic kidney cell. It is filed as cell-based. As to conditions: hek293. A general note: The hERG channel carries a current that helps repolarise heart muscle cells.

Data set [21] is described as follows: Tmax of aliskiren hemifumarate following single dosing of SPP100B oral solution at 640 mg level studied on day 1 in men. It is filed as ADME, organism-based. As to conditions: male, human, plasma.
A short description of data set [22]: Cmax of aliskiren hemifumarate following 4 week oral dietary dosing of aliskiren hemifumarate at 500 mg.Kg-1 level in female mouse. It is filed as ADME, organism-based. The settings on record: CB6F1-TGrasH2, mouse, in vivo.
The nature of data set [23]: Cmax normalised (0-168h) of unlabeled aliskiren hemifumarate following single oral administration of aliskiren hemifumarate at 3 mg.Kg-1 level in marmoset. As to conditions: in vivo. Format: ADME, organism-based, Callithrix jacchus, Plasma.
Data set [24] can be described thus: Cmax of aliskiren hemifumarate following single dosing of SPP100B oral solution at 80 mg level studied on day 1 in men. It is filed as ADME, organism-based. The settings on record: male, human, plasma.
The nature of data set [25]: AUC of unlabeled aliskiren hemifumarate following single oral dose of aliskiren hemifumarate at 500 mg.Kg-1 level in mouse. As to conditions: TgRasH2, mouse, plasma. It is filed as ADME, organism-based.
Data set [26] is described as follows: Effect of 2 week oral dosing of aliskiren hemifumarate at 10 mg.Kg-1 level on blood urea nitrogen level in female Callithrix jacchus. It is filed as toxicity, organism-based, Plasma. The settings on record: marmoset, 336 h.
Data set [27] in a line: AUCspec of aliskiren hemifumarate following 2 week oral dosing of aliskiren hemifumarate at 50 mg.Kg-1 level studied on day 14 in male Callithrix jacchus. It is filed as ADME, organism-based, Plasma. As to conditions: marmoset, in vivo, 336 h.
A short description of data set [28]: AUCspec of aliskiren hemifumarate following 2 week oral dosing of aliskiren hemifumarate at 100 mg.Kg-1 level studied on day 1 in male Callithrix jacchus. Format: ADME, organism-based, Plasma. The settings on record: marmoset, in vivo, 336 h.
A short description of data set [29]: Effect of 2 week oral dosing of aliskiren hemifumarate at 50 mg.Kg-1 level on plasma creatinine level in female Callithrix jacchus. Format: toxicity, organism-based. The settings on record: marmoset, 336 h.
Data set [30] can be described thus: Tmax of aliskiren hemifumarate following repeated oral administration of [14C] aliskiren hemifumarate at 100 mg.Kg-1 level studied after 2h of dosing on day 10 in rat. As to conditions: in vivo. It is filed as ADME, organism-based, Albino HAN:WIST.
Data set [31] is described as follows: Tmax of aliskiren hemifumarate following 4 week oral dietary dosing of aliskiren hemifumarate at 2000 mg.Kg-1 level in male mouse. Format: ADME, organism-based. The settings on record: CB6F1-TGrasH2, mouse, in vivo.
Data set [32] can be described thus: AUC of aliskiren hemifumarate following single dosing of SPP100B oral solution at 80 mg level studied on day 1 in men. It is filed as ADME, organism-based. As to conditions: male, human, plasma.
Data set [33] is described as follows: Tmax of aliskiren hemifumarate following 2 week oral dosing of aliskiren hemifumarate at 50 mg.Kg-1 level studied on day 14 in male Callithrix jacchus. The settings on record: marmoset, plasma. Format: ADME, organism-based.
Data set [34] is described as follows: t1/2 of aliskiren hemifumarate following 2 week oral dosing of aliskiren hemifumarate at 50 mg.Kg-1 level studied on day 1 in male Callithrix jacchus. It is filed as ADME, organism-based. The settings on record: marmoset, plasma.
Data set [35] can be described thus: Cmax of aliskiren hemifumarate following 2 week oral dosing of aliskiren hemifumarate at 50 mg.Kg-1 level studied on day 1 in female Callithrix jacchus. It is filed as ADME, organism-based. As to conditions: marmoset, plasma.
Data set [36] can be described thus: Effect of 2 week oral dosing of aliskiren hemifumarate at 100 mg.Kg-1 level on plasma creatinine level in male Callithrix jacchus. It is filed as toxicity, organism-based. The settings on record: marmoset, 336 h.
A short description of data set [37]: Effect of 2 week oral dosing of aliskiren hemifumarate at 100 mg.Kg-1 level on blood urea nitrogen level in male Callithrix jacchus. It is filed as toxicity, organism-based, Plasma. The settings on record: marmoset, 336 h.
Data set [38] is described as follows: AUC (0-24h)/dose of aliskiren hemifumarate following 4 week oral dietary dosing of aliskiren hemifumarate at 1000 mg.Kg-1 level in male mouse. It is filed as ADME, organism-based, CB6F1-TGrasH2, Plasma. The settings on record: in vivo.
The nature of data set [39]: AUC infinity of aliskiren hemifumarate following 2 week oral dosing of aliskiren hemifumarate at 50 mg.Kg-1 level studied on day 1 in male Callithrix jacchus. It is filed as ADME, organism-based. As to conditions: marmoset, plasma, read-out: AUC infinity.

Broadly, the half-life is the time in which the quantity being followed falls by half. Higher therefore signals slow decline. The Cmax is the highest concentration seen after dosing. In general, IC25 refers to the concentration needed for an effect of 25%. The low end stands for greater potency, the high end for weaker potency. A word on the Tmax: it is the time at which the peak concentration occurs. Broadly, the AUC is concentration integrated over time.

Voltage-gated inwardly rectifying potassium channel KCNH2, sequence (Q12809 whole entry): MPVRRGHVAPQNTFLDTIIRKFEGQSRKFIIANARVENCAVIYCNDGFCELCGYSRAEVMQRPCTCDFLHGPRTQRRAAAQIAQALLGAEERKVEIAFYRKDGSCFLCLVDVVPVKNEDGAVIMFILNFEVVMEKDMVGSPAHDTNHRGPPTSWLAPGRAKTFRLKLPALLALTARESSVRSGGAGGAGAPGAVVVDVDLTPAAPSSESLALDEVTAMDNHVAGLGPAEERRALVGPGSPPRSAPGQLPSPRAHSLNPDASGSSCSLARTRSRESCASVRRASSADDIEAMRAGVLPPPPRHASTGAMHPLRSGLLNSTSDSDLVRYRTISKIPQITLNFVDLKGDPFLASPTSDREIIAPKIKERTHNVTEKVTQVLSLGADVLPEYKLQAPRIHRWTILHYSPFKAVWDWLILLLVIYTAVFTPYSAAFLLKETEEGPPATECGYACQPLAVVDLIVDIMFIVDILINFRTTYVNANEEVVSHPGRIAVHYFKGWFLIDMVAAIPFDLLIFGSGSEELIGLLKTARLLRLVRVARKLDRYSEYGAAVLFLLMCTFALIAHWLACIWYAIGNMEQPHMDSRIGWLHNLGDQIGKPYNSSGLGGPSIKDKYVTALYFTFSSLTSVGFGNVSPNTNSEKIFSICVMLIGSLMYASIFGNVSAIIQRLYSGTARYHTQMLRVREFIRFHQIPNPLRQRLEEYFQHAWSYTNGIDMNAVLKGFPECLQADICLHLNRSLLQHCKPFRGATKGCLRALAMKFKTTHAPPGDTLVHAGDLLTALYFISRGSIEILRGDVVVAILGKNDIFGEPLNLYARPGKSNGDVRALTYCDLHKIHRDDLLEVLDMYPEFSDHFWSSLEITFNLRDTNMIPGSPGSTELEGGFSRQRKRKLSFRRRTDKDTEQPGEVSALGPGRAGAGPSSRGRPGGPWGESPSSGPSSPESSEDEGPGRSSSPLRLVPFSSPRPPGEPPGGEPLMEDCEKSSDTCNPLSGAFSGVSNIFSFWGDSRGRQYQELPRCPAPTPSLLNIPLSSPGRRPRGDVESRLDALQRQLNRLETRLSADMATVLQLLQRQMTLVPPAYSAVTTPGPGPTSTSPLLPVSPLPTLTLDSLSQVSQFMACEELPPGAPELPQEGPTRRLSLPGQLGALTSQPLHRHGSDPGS
Cytochrome P450 3A5, sequence (P20815 whole entry): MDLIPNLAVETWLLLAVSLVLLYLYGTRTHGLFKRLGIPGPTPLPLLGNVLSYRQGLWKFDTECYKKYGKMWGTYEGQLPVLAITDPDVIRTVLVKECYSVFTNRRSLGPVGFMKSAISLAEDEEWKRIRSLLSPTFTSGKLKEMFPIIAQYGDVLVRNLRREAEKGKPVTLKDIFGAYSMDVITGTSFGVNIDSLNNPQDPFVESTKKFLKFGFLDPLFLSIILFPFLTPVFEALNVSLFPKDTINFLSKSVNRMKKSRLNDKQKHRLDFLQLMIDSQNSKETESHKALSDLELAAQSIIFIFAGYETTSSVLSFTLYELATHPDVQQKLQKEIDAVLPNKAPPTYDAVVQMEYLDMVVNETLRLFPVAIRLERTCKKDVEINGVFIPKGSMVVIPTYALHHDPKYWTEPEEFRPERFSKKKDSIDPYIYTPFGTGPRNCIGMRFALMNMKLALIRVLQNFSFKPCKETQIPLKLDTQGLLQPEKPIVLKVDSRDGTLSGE

In the case of `COCCCOc1cc(C[C@@H](C[C@H](N)[C@@H](O)C[C@H](C(=O)NCC(C)(C)C(N)=O)C(C)C)C(C)C)ccc1OC`, the half-life in data set [1] was 41 h. The Compound recovery in [2] is on record as 2.3%; in data set [3], above 40%.
As for `COCCCOc1cc(C[C@@H](C[C@H](N)[C@@H](O)C[C@H](C(=O)NCC([14CH3])([14CH3])C(N)=O)C(C)C)C(C)C)ccc1OC.O=C(O)/C=C/C(=O)O`, the Radiolabel recovery in data set [4] is on record as 0.69%; in [5], “OUTCOME = Detected”; in data set [6], “OUTCOME = Detected”; in data set [9], 97.5%; in data set [10] it was 93.08%; in data set [11], 0.9%. The Radiolabel recovery in [12] stood at 4.6%; in [13], 6.2%; in data set [14] it was 4.04%; in [16], 90%; in data set [17], 0.6%; in data set [18], 5.69%. Also, the Radiolabel recovery in [19] is 93.38%. The peak concentration (Cmax) in data set [7] was determined as 14.6 µM. Besides, in data set [8], the Compound recovery is recorded as 94%. For the same compound, the CL on Cytochrome P450 3A5 is 47 µL·min/nmol. The Cmax normalised in data set [15] is given as 0.0042 (umol/L)/(mg/kg); in data set [15] (iv, 10 mg/kg) it was 2.12 (umol/L)/(mg/kg).
Turning to `COCCCOc1cc(C[C@@H](C[C@H](N)[C@@H](O)C[C@H](C(=O)NCC(C)(C)C(N)=O)C(C)C)C(C)C)ccc1OC.COCCCOc1cc(C[C@@H](C[C@H](N)[C@@H](O)C[C@H](C(=O)NCC(C)(C)C(N)=O)C(C)C)C(C)C)ccc1OC.O=C(O)/C=C/C(=O)O` [ALISKIREN FUMARATE], in [20], the IC25 was determined as 670.9 µM. Also, the IC50 result in data set [20] was “OUTCOME = IC50 was not calculated since inhibition did not reach 50% level”. Further, the values for the Tmax in data set [21], in [31] and in [33] were 2.1 h, 1 h and 2 h, respectively. The Cmax in [22] turned out to be 63.8 ng/mL; in data set [24], 11 ng/mL; in data set [35], 8830 ng/mL. Besides, in data set [23], the Cmax normalised is 0.132 (umol/L)/(mg/kg). The AUC in [25] worked out at 7.04 µM·h; in data set [32], 96.4 ng·h/mL. For the same compound, the BUN_CHANGE_BY in [26] amounted to 69%; in data set [37], 166%. Further, the AUC normalised in data set [27] is 2.14 ((ug.h.ml-1)/(mg/kg); in data set [28], 0.764 ((ug.h.ml-1)/(mg/kg); in [38], 4.82 ((ng/mL).hours)/(mg/kg/day). Also, the CREAT_CHANGE_BY in [29] and in [36] was 130% throughout. Also, in data set [30], the “Tmax(10)” value is listed as 218 h. This compound also had a half-life in [34] of 7.37 h. Moreover, the AUC(0-inf) in data set [39] was found to be 64000 ng·h/mL.

These data come from ChEMBL document CHEMBL3508693 (2016).
